In one test the test system is RPMI-8226/GN1. The test is described as follows: Multiple myeloma cells in mono- and co-culture with osteoblasts, imaging based detection (RPMI-8226). The test is classed as cell-based. As for the experimental part:
(§1) Compound 86 has been compared with the key compound of WO 2000/21926 A2 (Example 121) in an imaging based detection system.
(§2) Two different multiple myeloma (MM) cell lines (RPMI-8226 (DSMZ, ACC 402), NCI-H929 DSMZ, ACC 163) have been used and were cultured in mono- and co-culture with osteoblasts (OB) (Osteoblasts were obtained by culturing hMSCs with a differentiation inducing medium for two weeks) in accordance with the method of Karadag A. et al. Journal of Bone and Mineral Research Vol. 15, No. 10, 2000 page 1935-43.

For a further test, the system named is NCI-H929/GN2. Kind of test: Multiple myeloma cells in mono- and co-culture with osteoblasts, imaging based detection (NCI-H929). Format: cell-based. The protocol:
as §1, §2

Each structure is given as a SMILES string. Values joined by “and” are separate entries in the source; they are usually repeats but may differ in a detail not shown here. Equal values may be shown once. Read-outs that look alike come from different tables or passages of the source.

As a reminder, the EC50 is the concentration that produces a half-maximal response. Consider `CC(C)c1nn(-c2c(Cl)cc(Cl)cc2Cl)c2nc(Cc3ccc(NC(=O)C4CN(C)CCN4C)cc3)[nH]c(=O)c12` (centres unmarked) [Reference compound, reference compound], for which the EC50 with RPMI-8226/GN1 (Homo sapiens, RPMI-8226, RPMI-8226/GN1, co-culture with osteoblasts, read-out: co-culture (+ OB) EC50) is 420 nM; in the test with RPMI-8226/GN1 (Homo sapiens, RPMI-8226, RPMI-8226/GN1, mono-culture, read-out: mono-culture EC50), 120 nM; with RPMI-8226/GN1 (RPMI-8226/GN1, co-culture with osteoblasts, read-out: co-culture (+ OB) EC50), 520 nM and 650 nM; with RPMI-8226/GN1 (RPMI-8226/GN1, mono-culture, read-out: mono-culture EC50), 200 nM and 210 nM; with NCI-H929/GN2 (Homo sapiens, NCI-H929, NCI-H929/GN2, co-culture with osteoblasts, read-out: co-culture (+ OB) EC50), 160 nM; in the test with NCI-H929/GN2 (Homo sapiens, NCI-H929, NCI-H929/GN2, mono-culture, read-out: mono-culture EC50), 50 nM. For the same molecule, the EC50 in the test with NCI-H929/GN2 (NCI-H929/GN2, co-culture with osteoblasts, read-out: co-culture (+ OB) EC50) was 150 nM; with NCI-H929/GN2 (NCI-H929/GN2, mono-culture, read-out: mono-culture EC50) it was 65 nM.

The record behind these values is patent US11091490B2, “3-amino-1,5-dihydro-pyrazolo[3,4-d]pyrimidin-4-ones as cyclin dependent kinase inhibitors” (Oncotyrol Center for Personalized Cancer Medicine GMBH, priority 2016, dated 2021).
